The values that follow are results of earlier work, collected in patent US5298499A, “S-2-(substituted ethylamino)ethyl phosphorothioates” (Research Triangle Institute, priority 1991, dated 1994).

Each structure is given as a SMILES string. Where two headings read alike, the source gives them in different places.

The conditions of data set [1]: background statement.

For the compound `NCCCNCCS` [Compound 2], for the setting “literature”, the radioprotective activity result is “known to be a radioprotective agent”.

On to `NC(=O)CCNCCS` [Compound 3, 2-(2.varies.-carbamidoethylamino)ethanethiol], for which, under “literature”, the radioprotective activity result is “good radioprotective activity, comparable to that of compound 2”. On to `NCCCNCCSP(=O)(O)O` [WR2721, S-2-[3-aminopropylamino]ethylphosphorothioicacid], for which, for the setting “in vivo”, the radioprotective activity entry is on record as “most effective agent”. In data set [1], the “uptake in malignant and healthy tissue” value is reported as “comparable uptake”.
